Laboratory results published in US10172358B2, “Thiopicolinamide compounds with fungicidal activity” (Dow AgroSciences LLC, priority 2016, dated 2019).
Like-named read-outs stand apart in the source and are kept apart here.

Columns and labels:
[1] = tested on: Puccinia triticina; experiment: Fungicidal activity: wheat brown rust (PUCCRT), disease control on wheat seedlings; assay type: in vivo, Puccinia triticina on wheat plants (variety Yuma); conditions: low volume application, 121.5 g/H
Method: Technical grades of materials were dissolved in acetone, which were then mixed with nine volumes of water (H2O) containing 110 ppm Triton X-100. The fungicide solutions were applied onto wheat seedlings using an automated booth sprayer to run-off. All sprayed plants were allowed to air dry prior to further handling. All fungicides were evaluated using the aforementioned method for their activity vs. all target diseases, unless stated otherwise. Wheat leaf blotch and brown rust activity were also evaluated using track spray applications, in which case the fungicides were formulated as EC formulations, containing 0.1% Trycol 5941 in the spray solutions. Evaluation of Fungicidal Activity: Wheat Brown Rust (Puccinia triticina; Synonym: Puccinia recondita f. Sp. Tritici; Bayer Code PUCCRT) Wheat plants (variety Yuma) were grown from seed in a greenhouse in 50% mineral soil/50% soil-less Metro mix until the first leaf was fully emerged, with 7-10 seedlings per pot. These plants were inoculated with an aqueous spore suspension of Puccinia triticina either prior to or after fungicide treatments. After inoculation the plants were kept in a dark dew room at 22° C. with 100% relative humidity overnight to permit spores to germinate and infect the leaf. The plants were then transferred to a greenhouse set at 24° C. for disease to develop. Fungicide formulation, application and disease assessment followed the procedures as described in the Example A. The results of the evalution are shown below in Table 4.

[2] = tested on: Phakopsora pachyrhizi; experiment: Fungicidal activity: Asian soybean rust (PHAKPA), disease control on soybean seedlings; assay type: in vivo
Method: Evaluation of Fungicidal Activity: Asian Soybean Rust (Phakopsora Pachyrhizi; Bayer Code PHAKPA)
Technical grades of materials were dissolved in acetone, which were then mixed with nine volumes of H2O containing 0.011% Tween 20. The fungicide solutions were applied onto soybean seedlings using an automated booth sprayer to run-off. All sprayed plants were allowed to air dry prior to further handling.
Soybean plants (variety Williams 82) were grown in soil-less Metro mix, with one plant per pot. Two weeks old seedlings were used for testing. Plants were inoculated either 3 days prior to or 1 day after fungicide treatments. Plants were incubated for 24 h in a dark dew room at 22° C. and 100% relative humidity then transferred to a growth room at 23° C. for disease to develop. Disease severity was assessed on the sprayed leaves.

[3] = tested on: Zymoseptoria tritici; experiment: Fungicidal activity: leaf blotch of wheat (SEPTTR), disease control on wheat seedlings; assay type: in vivo, Zymoseptoria tritici on wheat plants (variety Yuma); conditions: low volume application, 121.5 g/H
Method: Evaluation of Fungicidal Activity: Leaf Blotch of Wheat (Zymoseptoria Tritici; Bayer Code […]) Technical grades of materials were dissolved in acetone, which were then mixed with nine volumes of water (H2O) containing 110 ppm Triton X-100. The fungicide solutions were applied onto wheat seedlings using an automated booth sprayer to run-off. All sprayed plants were allowed to air dry prior to further handling. All fungicides were evaluated using the aforementioned method for their activity vs. all target diseases, unless stated otherwise. Wheat leaf blotch and brown rust activity were also evaluated using track spray applications, in which case the fungicides were formulated as EC formulations, containing 0.1% Trycol 5941 in the spray solutions. Wheat plants (variety Yuma) were grown from seed in a greenhouse in 50% mineral soil/50% soil-less Metro mix until the first leaf was fully emerged, with 7-10 seedlings per pot. These plants were inoculated with an aqueous spore suspension of Zymoseptoria tritici either prior to or after fungicide treatments. After inoculation the plants were kept in 100% relative humidity (one day in a dark dew chamber followed by two to three days in a lighted dew chamber at 20° C.) to permit spores to germinate and infect the leaf. The plants were then transferred to a greenhouse set at 20° C. for disease to develop. When disease symptoms were fully expressed on the 1st leaves of untreated plants, infection levels were assessed on a scale of 0 to 100 percent disease severity. Percent disease control was calculated using the ratio of disease severity on treated plants relative to untreated plants.

[4] = 72 h, 3 day curative, read-out: PUCCRT 3DC disease control, LV activity at 121.5 g/H
[5] = 24 h, 1 day protectant, read-out: PHAKPA 1DP disease control at 25 ppm
[6] = 24 h, 1 day protectant, read-out: PUCCRT 1DP disease control, LV activity at 121.5 g/H
[7] = 72 h, 3 day curative, read-out: PHAKPA 3DC disease control at 25 ppm
[8] = 24 h, 1 day protectant, read-out: SEPTTR 1DP disease control, LV activity at 121.5 g/H
[9] = 72 h, 3 day curative, read-out: SEPTTR 3DC disease control, LV activity at 121.5 g/H

Row | Structure (SMILES) | pest or weed control at 121.5 g/ha [1, 4] [%] | pest or weed control at 25 ppm [2, 5] [%] | pest or weed control at 121.5 g/ha [1, 6] [%] | pest or weed control at 25 ppm [2, 7] [%] | pest or weed control at 121.5 g/ha [3, 8] [%] | pest or weed control at 121.5 g/ha [3, 9] [%]
1 | COc1ccnc(C(=S)N[C@@H](C)C(=O)O[C@H](CC(C)C)[C@H](C)Oc2ccccc2)c1OC(C)=O [Compound 40] | ≤ 80 | ≤ 80 | – | – | – | –
2 | COc1ccnc(C(=S)N[C@@H](C)C(=O)O[C@H](C(C)C)[C@H](C)Oc2ccccc2)c1OC(C)=O [Compound 61] | > 80 | > 80 | > 80 | > 80 | ≤ 80 | > 80
3 | CCC[C@@H](Oc1ccc(C)cc1)[C@H](C)OC(=O)[C@H](C)NC(=S)c1nccc(OC)c1OC(C)=O [Compound 62] | > 80 | ≤ 80 | > 80 | ≤ 80 | ≤ 80 | –
4 | COc1ccnc(C(=S)N[C@@H](C)C(=O)O[C@@H](C)C(c2ccc(F)cc2F)c2ccc(F)cc2F)c1OC(C)=O [Compound 63] | ≤ 80 | > 80 | > 80 | ≤ 80 | > 80 | > 80
5 | COc1ccnc(C(=S)N[C@@H](C)C(=O)O[C@@H](C)[C@@H](c2ccc(F)cc2)c2ccc(F)cc2C)c1OC(C)=O [Compound 64] | ≤ 80 | > 80 | > 80 | > 80 | > 80 | > 80
6 | COc1cc(C)ccc1C(c1ccc(C)cc1OC)[C@H](C)OC(=O)[C@H](C)NC(=S)c1nccc(OC)c1OC(C)=O [Compound 65] | > 80 | > 80 | > 80 | ≤ 80 | > 80 | > 80
7 | CC[C@H](OC(=O)[C@H](C)NC(=S)c1nccc(OC)c1OC(C)=O)[C@@H](C)Oc1ccccc1 [Compound 66] | ≤ 80 | ≤ 80 | ≤ 80 | ≤ 80 | – | –
8 | COc1cc(F)ccc1C(c1ccc(F)cc1OC)[C@H](C)OC(=O)[C@H](C)NC(=S)c1nccc(OC)c1OC(C)=O [Compound 67] | ≤ 80 | > 80 | > 80 | ≤ 80 | > 80 | > 80
9 | COc1ccnc(C(=S)N[C@H](C)C(=O)O[C@H](C)C(c2ccc(F)cc2)c2ccc(F)cc2)c1OC(C)=O [Compound 68] | ≤ 80 | ≤ 80 | – | – | ≤ 80 | –
10 | COc1ccnc(C(=S)N[C@@H](C)C(=O)O[C@@H](C(C)C)[C@@H](C)Oc2ccccc2)c1OC(C)=O [Compound 69] | ≤ 80 | ≤ 80 | ≤ 80 | – | – | ≤ 80
11 | COc1cc(F)ccc1[C@@H](c1ccc(F)cc1)[C@H](C)OC(=O)[C@H](C)NC(=S)c1nccc(OC)c1OC(C)=O [Compound 70] | > 80 | > 80 | > 80 | ≤ 80 | > 80 | > 80
12 | COc1ccnc(C(=S)N[C@@H](C)C(=O)O[C@@H](C)[C@H](Oc2ccc(Cl)cc2)C2CCCC2)c1OC(C)=O [Compound 71] | > 80 | ≤ 80 | > 80 | – | > 80 | ≤ 80
13 | CCC[C@H](OC(=O)[C@H](C)NC(=S)c1nccc(OC)c1OC(C)=O)[C@@H](C)Oc1ccccc1 [Compound 76] | – | ≤ 80 | – | – | – | –
